Data: patent US20160102317A1, “PLANTS HAVING INCREASED TOLERANCE TO HERBICIDES” (BASF SE, priority 2013, published 2016)

Key:
[1] = biological target: T1, Arabidopsis HPPD (SEQ ID NO:53), wild-type (Arabidopsis thaliana, UniProt P93836); experiment: HPPD activity assay (HGA by HPLC), wild-type enzyme characterization; type: biochemical; conditions: Arabidopsis HPPD
T1 construct: His6 (N); made in house; host or cells: E. coli BL21 (DE3)
T1 sequence (P93836 1-445): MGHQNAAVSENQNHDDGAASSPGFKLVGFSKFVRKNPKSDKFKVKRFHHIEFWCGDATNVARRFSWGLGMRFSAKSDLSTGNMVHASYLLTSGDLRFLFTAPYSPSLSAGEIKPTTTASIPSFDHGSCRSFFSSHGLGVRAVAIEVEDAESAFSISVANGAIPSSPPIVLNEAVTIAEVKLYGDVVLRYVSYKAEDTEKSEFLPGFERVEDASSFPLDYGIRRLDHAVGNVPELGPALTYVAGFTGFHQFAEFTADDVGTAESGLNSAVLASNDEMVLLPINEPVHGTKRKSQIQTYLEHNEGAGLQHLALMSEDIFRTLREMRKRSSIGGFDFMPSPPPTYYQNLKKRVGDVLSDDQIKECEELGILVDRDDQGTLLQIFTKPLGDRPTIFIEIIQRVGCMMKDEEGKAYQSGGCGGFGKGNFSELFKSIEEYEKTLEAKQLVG
Experimental: (§1) HPPD produces homogentisic acid and CO2 from 4-hydroxyphenylpyruvate (4-HPP) and 02. The activity assay for HPPD is based on the analysis of homogentisic acid by reversed phase HPLC. The assay mixture can contain 150 mM potassium phosphate buffer pH 7.0, 50 mM L-ascorbic acid, 100 μM Catalase (Sigma-Aldrich), 1 μM FeSO4 and 0.2 units of purified HPPD enzyme in a total volume of 505 μl. 1 unit is defined as the amount of enzyme that is required to produce 1 nmol of HGA per minute at 20° C.
(§2) After a preincubation of 30 min the reaction is started by adding 4-HPP to a final concentration of 0.05 mM. The reaction is allowed to proceed for 45 min at room temperature. The reaction is stopped by the addition of 50 μl of 4.5 M phosphoric acid. The sample is filtered using a […] pore size PVDF filtration device.
(§3) 5 μl of the cleared sample is analyzed on an UPLC HSS T3 column (particle size 1.8 μm, dimensions 2.1×50 mm; Waters) by isocratic elution using 90% 20 mM NaH2PO4 pH 2.2, 10% methanol (v/v).
(§4) HGA is detected electrochemically at 750 mV (mode: DC; polarity: positive) and quantified by integrating peak areas (Empower software; Waters).
(§5) Inhibitors are dissolved in DMSO (dimethylsulfoxide) to a concentration of 0.5 mM. From this stock solution serial five-fold dilutions are prepared in DMSO, which are used in the assay. The respective inhibitor solution accounts for 1% of the assay volume. […] Activities are normalized by setting the uninhibited enzyme activity to 100%. IC50 values are calculated using non-linear regression.
(§6) Using methods which are described in the above examples or well known in the art, purified, recombinant wild-type HPPD enzymes are characterized with respect to their kinetic properties and sensitivity towards HPPD inhibiting herbicides. Apparent michaelis constants (Km) and maximal reaction velocities (Vmax) are calculated by non-linear regression with the software GraphPad Prism 5 (GraphPad Software, La Jolla, USA) using a substrate inhibition model. […] Weighted means (by standard error) of Km and IC50 values are calculated from at least three independent experiments.
(§7) Field performance of the HPPD enzyme, which is used as a herbicide tolerance trait, may depend not only on its lack of sensitivity towards HPPD inhibiting herbicides but also on its activity. To assess the potential performance of a herbicide tolerance trait a tolerance index (TI) is calculated using the following formula: […]
(§8) Easy comparison and ranking of each trait is enabled by normalizing tolerance indexes on Arabidopsis wild-type HPPD.

[2] = biological target: T2, Hordeum HPPD (SEQ ID NO:2), wild-type (Hordeum vulgare, UniProt O48604, A164G/R146V/R147D/R148G); experiment: as above; type: biochemical; conditions: Hordeum HPPD
T2 construct: His (N); made in house; host or cells: E. coli BL21 (DE3)
T2 sequence (O48604 whole entry R146V/R147D/R148G/A164G): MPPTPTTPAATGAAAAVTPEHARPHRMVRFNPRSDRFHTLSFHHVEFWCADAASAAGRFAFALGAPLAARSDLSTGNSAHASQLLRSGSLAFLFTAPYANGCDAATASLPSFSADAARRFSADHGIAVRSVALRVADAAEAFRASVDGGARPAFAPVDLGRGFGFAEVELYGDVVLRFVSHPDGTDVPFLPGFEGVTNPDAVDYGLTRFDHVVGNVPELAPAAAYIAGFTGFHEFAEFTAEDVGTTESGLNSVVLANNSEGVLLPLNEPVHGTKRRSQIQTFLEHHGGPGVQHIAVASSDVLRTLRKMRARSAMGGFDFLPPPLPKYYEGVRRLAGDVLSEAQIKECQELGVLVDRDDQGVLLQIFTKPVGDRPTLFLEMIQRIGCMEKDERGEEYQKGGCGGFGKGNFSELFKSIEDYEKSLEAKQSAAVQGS
Experimental: as §1, §2, §3, §4, §5, §6, §7, §8

[3] = apparent Km, read-out: Km [μM] (4-HPP)
[4] = apparent kcat from Vmax, substrate 4-HPP

Q: Which Km [1, 3] does the source give for O=C(O)C(=O)Cc1ccc(O)cc1 [Inhibitor 4-HPP, 4-hydroxyphenylpyruvate, reference compound] here?
A: The Km was 13 µM.

Q: What about the kcat [1, 4] of the same compound?
A: Its kcat is 12.9 S^−1.

Q: What about the Km [2, 3] of the same compound?
A: Its Km is 26 µM.

Q: What about the kcat [2, 4] of the same compound?
A: Its kcat is 11.5 S^−1.
